Experimental data reported in patent US20260014143A1, “Prostaglandin E synthase 3 (PTGES3) Inhibiting Compounds” (The Regents of the University of California, priority 2022, published 2026).
Entries after “also recorded” stand apart in the source; their conditions may differ.

Columns and labels:
[1] = target: T1, Recombinant CysLite PTGES3 (cysteine 76) (Homo sapiens, UniProt Q15185); test: Dose response assay: labeling of recombinant CysLite PTGES3 by intact protein mass spectrometry; type: binding; settings: 100 uM BME, 1 μM protein, 1 h ambient temperature; read-out: EC50 with 100 uM BME competitor (half maximal labeling of cyslite PTGES3)
T1 sequence (Q15185 1-160): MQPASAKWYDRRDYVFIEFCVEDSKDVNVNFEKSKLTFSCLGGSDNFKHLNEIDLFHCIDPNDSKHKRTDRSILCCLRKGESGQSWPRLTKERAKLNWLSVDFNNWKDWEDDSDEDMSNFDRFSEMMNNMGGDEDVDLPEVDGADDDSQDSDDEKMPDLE
Method: Recombinant CysLite PTGES3 (1 μM, 50 mM Tris-HCl, pH 8.0, 150 mM NaCl and 100 μM βME) were incubated for 1 h at ambient temperature with lead fragments (4% DMSO) in a 7-, 8- or 9-point threefold serial dilution series in duplicate. Reactions were quenched by the addition of formic acid to a final concentration of 0.4%. Labeling was determined by intact protein mass spectrometry.

[2] = system: Recombinant CysLite PTGES3; test: Differential scanning fluorimetry (thermal shift) of fully labeled CysLite PTGES3; type: binding; settings: cyslite PTGES3 fully labeled with compound
Method: Recombinant […] PTGES3 at a concentration of 8 μM in 50 mM HEPES pH 7.5, 150 mM NaCl were incubated with compounds or DMSO for unlabeled comparisons, at ambient temperature until complete labeling was observed by intact protein mass spectrometry. 7K Zeba Desalting columns (ThermoFisher) were used to remove excess compound. The Zeba 7K columns were first preequilibrated with 50 mM HEPES (pH 7.5), 150 mM NaCl. Sypro Orange (500x, DMSO) was added to the purified protein-small molecule conjugates to a final concentration of 5x Sypro Orange. These DSF assays were performed in triplicate in white 96-well plates. The plate was sealed with optically clear PCR sealing film (USA Scientific). The thermal shift assay was performed on a Bio-Rad CFX qPCR instrument. The temperature was increased from 23° C. to 95° C. at a rate of 0.5° C./s. After each temperature step, fluorescence was monitored with an excitation of 492 nm and emission of 610 nm. Raw fluorescence values were normalized between 0 and 1 and fit to a Boltzman equation using GraphPad Prism with the maximum value of the fit constrained to 1.

PTGES3-AR interaction = test: Far western blot of AR-PTGES3 interaction; type: biochemical; settings: CysLite PTGES3 pre-modified with compound
Method: Flag-AR was loaded on a gel, transferred to membrane, and renatured. The membranes were incubated with recombinant CysLite PTGES3 protein or recombinant CysLite PTGES3 protein labeled with 1. The interaction was detected with PTGES3 antibody. […] Each blot experiment was performed twice to determine reproducibility.

[3] = system: Recombinant CysLite PTGES3; test: BME competition assay: labeling of CysLite PTGES3 at high BME competitor; type: binding; settings: 200 uM compound
Method: Recombinant CysLite PTGES3 (1 μM, 50 mM Tris-HCl, pH 8.0, 150 mM NaCl) were incubated with 200 μM fragment (2% DMSO) and 500 μM or 1 mM BME at ambient temperature for 8 h. Reactions were quenched by the addition of formic acid to a final concentration of 0.4%. Labeling was determined by intact protein mass spectrometry.

[4] = system: PTGES3 enhanced AR/ARE binding; test: AR/ARE gel shift (EMSA) assay; type: biochemical; settings: DHT+ buffer, free ARE DNA detected by SYBR gold
Method: The reactions were then loaded on a DNA retardation gel. ARE DNA bands were detected by SYBR gold. […] Experiment was performed twice to determine reproducibility.
Electrophoretic mobility shift assays (EMSA) were performed using recombinant AR protein (EMD Millipore) and 3×ARE dsDNA from the ARR3TK plasmid. Protein-DNA complexes were allowed to incubate in room temperature for 30 min in loading buffer (20 mM HEPES, 100 mM KCl, 2 ng/ml poly(dI-dC), 10% glycerol, and 20 nM DHT), followed by electrophoresis on 6% DNA Retardation Gels in TBE buffer (PH 8.0). Visualization of protein-DNA complexes was performed with SYBR Gold DNA staining dye (Invitrogen).

AR-independent PC3 cells = test: Cell growth of AR-independent PC3 cells; type: cell-based
Method: (§1) Normalized to DMSO and analyzed by IncuCyte system (n=3 as biological replicates; Mean±SEM).
Fold change of cell count normalized over day 0 was analyzed by IncuCyte system (n=3 as biological replicates; Mean SEM). Unpaired two-tailed t-test was used to determine statistical significance (ns=no significant difference; *** P<0.001).

[5] = system: AR protein levels, LNCaP cells; test: AR protein levels in LNCaP cells by western blotting; type: cell-based; settings: 100 μM, 48 h, nuclear AR, western blot
Method: Nuclear AR and TBP levels were detected by western blotting. Each western blot experiment was performed twice to determine reproducibility.

[6] = system: AR target genes, LNCaP cells; test: AR target gene mRNA levels in LNCaP cells by real-time PCR; type: cell-based; settings: 100 μM, 48 h, mRNA over 18s rRNA
Method: RNA was collected, indicated genes mRNA levels over 18s rRNA were measured by real-time PCR (n=3 as biological replicates; Mean±SEM).

[7] = Parallel artificial membrane permeability assay (PAMPA); type: in vitro ADME
AR+ LNCaP cells = test: Cell growth of AR+ LNCaP cells; type: cell-based
Method: as §1
(§2) Compounds were tested at 100 uM for the ability to label cysteine 76 of cyslite PTGES3. In some cases labeling was not detected. Cyslite PTGES3 was then fully labeled with the compounds and the thermal shift values of the fully labeled protein was determined with stabilization values indicated below. […] Finally, select compounds were tested to determine if they inhibited cell growth in AR+LNCaP cells.
LNCaP cell lines were grown in the RPMI 1640 medium (Gibco) supplemented with 10% fetal bovine serum (FBS; Gibco). Cells were grown in a humidified 5% CO2 incubator at 37° C.

[8] = system: cysteine 76 of cyslite PTGES3; test: Labeling of cysteine 76 of cyslite PTGES3 at 100 uM compound; type: binding
Method: as §2

Compound	Thermal Shift (Cyslite PTGES3) ΔTm [2]	4 h labeling (100 uM) [8]	24 h labeling (100 uM) [8]	also measured
CN(C)CCSSCCNC(=O)[C@@H]1CN(C(=O)c2cc(F)c(O)c(Cl)c2)C[C@H]1c1ccccc1 (racemic) [Compound 1]	confirmed by DSF to stabilize CysLite PTGES3	–	–	EC50 [1]: 70.6 µM; Thermal Shift (Cyslite PTGES3) ΔTm ([2]; listed as compound 1): 1.6 °C; PTGES3-AR interaction (far western blot) (PTGES3-AR interaction): ablated in vitro PTGES3-AR interaction; also recorded: disrupted the PTGS3-AR interaction; % Labeling in presence of 500 uM BME competitor ([3]; 500 uM BME): 79.03%; % Labeling in presence of 1 mM BME competitor ([3]; 1 mM BME): 76.67%; PTGES3 enhanced AR/ARE binding (gel shift) [4]: inhibited PTGES3 enhanced AR/ARE binding; also recorded: increases the free ARE levels
COC(=O)[C@@H]1CN(C(=O)c2cc(F)c(O)c(Cl)c2)C[C@H]1c1ccccc1 (racemic) [Compound 2]	–	–	–	Growth of AR-independent PC3 (AR−) cells (AR-independent PC3 cells): not AR-independent PC3 cells; also recorded: not AR− negative cell lines; AR protein levels [5]: significantly reduced; Expression of AR target genes [6]: significantly reduced; PAMPA assay [7]: Permeable; AR + cell line activity (growth of AR-driven LNCaP cells) (AR+ LNCaP cells): significantly reduced and inhibit cell proliferation in AR+ and Yes
C=CS(=O)(=O)N[C@@H]1CN(C(=O)c2cc(F)c(O)c(Cl)c2)C[C@H]1c1ccccc1 [Compound 3]	ΔTm + 3.3 °C	5.27%	28.15%	–
C=CS(=O)(=O)N[C@@H]1CN(C(=O)c2ccccc2)C[C@H]1c1ccccc1 [Compound 4]	ΔTm + 1.9 °C	4.01%	20.75%	–
C=CS(=O)(=O)N[C@@H]1CN(C(=O)c2ccc(O)cc2)C[C@H]1c1ccccc1 [Compound 5]	–	4.71%	35.51%	–
C=CS(=O)(=O)N[C@@H]1CN(C(=O)c2ccc(S(N)(=O)=O)cc2)C[C@H]1c1ccccc1 [Compound 6]	ΔTm + 3.0 °C	9.61%	44.20%	Cell activity (inhibited cell growth in AR+ LNCaP cells) (AR+ LNCaP cells): Yes
C=CS(=O)(=O)N[C@@H]1CN(C(=O)c2ccc(S(=O)(=O)NC)cc2)C[C@H]1c1ccccc1 [Compound 7]	ΔTm + 2.1 C. ° C.	7.21%	36.40%	–
C=CS(=O)(=O)N[C@@H]1CN(C(=O)c2cc(F)cc(Cl)c2)C[C@H]1c1ccccc1 [Compound 8]	–	Not detected	14.74%	–
C=CS(=O)(=O)N[C@@H]1CN(C(=O)c2ccc(S(N)(=O)=O)c(F)c2)C[C@H]1c1ccccc1 [Compound 9]	ΔTm + 3.3 °C	12.38%	51.4%	Cell activity (inhibited cell growth in AR+ LNCaP cells) (AR+ LNCaP cells): Yes
C=CS(=O)(=O)N[C@@H]1CN(C(=O)c2ccc(S(N)(=O)=O)c(Cl)c2)C[C@H]1c1ccccc1 [Compound 10]	ΔTm + 3.3 °C	Not detected	27.44%	–
C=CS(=O)(=O)N[C@@H]1CN(C(=O)c2cccc(S(N)(=O)=O)c2)C[C@H]1c1ccccc1 [Compound 11]	ΔTm + 0.4 °C	17.84%	72.62%	Cell activity (inhibited cell growth in AR+ LNCaP cells) (AR+ LNCaP cells): Yes
C=CS(=O)(=O)N1CCN(C(=O)[C@@H]2CN(C(=O)c3ccc(S(N)(=O)=O)c(F)c3)C[C@H]2c2ccccc2)CC1 [Compound 12]	No stabilization	6.27%	36.65%	–
C=CS(=O)(=O)NCCNC(=O)[C@@H]1CN(C(=O)c2ccc(S(N)(=O)=O)c(F)c2)C[C@H]1c1ccccc1 [Compound 13]	No stabilization	Not detected	13.63%	–
C=CS(=O)(=O)NC1CN(C(=O)[C@@H]2CN(C(=O)c3ccc(S(N)(=O)=O)c(F)c3)C[C@H]2c2ccccc2)C1 [Compound 14]	No stabilization	7.18%	48.46%	Cell activity (inhibited cell growth in AR+ LNCaP cells) (AR+ LNCaP cells): No
CN(C)CCSSCCNC(=O)[C@@H]1CN(C(=O)c2cc(F)c(O)c(Cl)c2)C[C@H]1c1ccccc1 [Compound 994364]	increases the thermal melt temperature	–	–	–
